Measurements: the supplement of paper PMC6045584
± gives the standard deviation of the averaged measurements.

These test systems were tested with COCC[n+]1c2c(n(Cc3cnccn3)c1C)C(=O)c1ccccc1C2=O [YM155] (assay: surviving fraction relative to DMSO-only wells; higher = less growth inhibition). Settings: 0.5 nM; exposure time: 5 days.
Procedure, shortened: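 At 250–500 cells per well in 384-well plates, log-phase tumour cell lines were seeded and, 24 hours on, exposed continuously for five days to inhibitors at 0.5, 1, 5, 10, 50, 100, 500 and 1000 nM. Viability readout was CellTiter-Glo luminescence, reported as surviving fraction normalised to the median of DMSO-only wells.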

In order of falling surviving fraction:
1. RDES SOFT TISSUE  1.44 ± 0.073
2. HCC38 BREAST  1.28 ± 0.18
3. SG43 HEADNECK  1.18 ± 0.4
4. SAOS2 BONE  1.16 ± 0.021
5. SG27 HEADNECK  1.13 ± 0.13
6. 22RV1 PROSTATE  1.12 ± 0.21
7. HCC1954 BREAST  1.08 ± 0.077
8. CADOES1 SOFT TISSUE  1.06 ± 0.12
9. SUM44 BREAST  1.05 ± 0.16
10. VP229 BREAST  1.04 ± 0.023
11. HCC1806 BREAST  1.04 ± 0.077
12. HT1080 SOFT TISSUE  1.03 ± 0.021
13. OSHN BONE  1.02 ± 0.021
14. SG31 HEADNECK  1.01 ± 0.095
15. NCIH441 LUNG  0.991 ± 0.038
16. HMT3552 BREAST  0.983 ± 0.045
17. KPD BONE  0.966 ± 0.037
18. MFM223 BREAST  0.966 ± 0.082
19. 93VU HEADNECK  0.961 ± 0.099
20. MDAMB157 BREAST  0.958 ± 0.024
21. MDAMB468 BREAST  0.953 ± 0.021
22. OS25HAL BONE  0.944 ± 0.046
23. LM7 BONE  0.943 ± 0.029
24. HU09 BONE  0.942 ± 0.072
25. CAL120 BREAST  0.934 ± 0.049
26. MDAMB436 BREAST  0.932 ± 0.065
27. HOS BONE  0.923 ± 0.0036
28. SIHA CERVIX  0.917 ± 0.056
29. MDAMB231 BREAST  0.91 ± 0.0095
30. BT20 BREAST  0.907 ± 0.077
31. CAL51 BREAST  0.905 ± 0.039
32. 143B BONE  0.89 ± 0.082
33. ASKA SYNOVIAL  0.87 ± 0.054
34. MCF7 BREAST  0.853 ± 0.076
35. SYO1 SYNOVIAL  0.847 ± 0.01
36. SG32 HEADNECK  0.841 ± 0.053
37. ZR751 BREAST  0.835 ± 0.1
38. SNU475 LIVER  0.815 ± 0.055
39. CHLA90 AUTONOMIC GANGLIA  0.807 ± 0.017
40. MDAMB134 BREAST  0.783 ± 0.027
41. HCC78 LUNG  0.7 ± 0.12

Same assay, conditions: 1 nM; exposure time: 5 days

In order of rising surviving fraction:
1. HOS BONE  0.503 ± 0.017
2. HCC78 LUNG  0.701 ± 0.23
3. SG32 HEADNECK  0.83 ± 0.12
4. MDAMB134 BREAST  0.855 ± 0.052
5. CAL51 BREAST  0.873 ± 0.042
6. BT20 BREAST  0.875 ± 0.089
7. MCF7 BREAST  0.883 ± 0.018
8. LM7 BONE  0.889 ± 0.053
9. MDAMB468 BREAST  0.901 ± 0.035
10. MDAMB231 BREAST  0.903 ± 0.024
11. CAL120 BREAST  0.905 ± 0.073
12. CADOES1 SOFT TISSUE  0.907 ± 0.093
13. HCC1954 BREAST  0.922 ± 0.12
14. ASKA SYNOVIAL  0.924 ± 0.094
15. CHLA90 AUTONOMIC GANGLIA  0.926 ± 0.075
16. MDAMB436 BREAST  0.929 ± 0.14
17. SIHA CERVIX  0.938 ± 0.069
18. ZR751 BREAST  0.95 ± 0.085
19. HT1080 SOFT TISSUE  0.954 ± 0.035
20. MFM223 BREAST  0.954 ± 0.19
21. SYO1 SYNOVIAL  0.967 ± 0.035
22. 93VU HEADNECK  0.982 ± 0.081
23. 143B BONE  0.987 ± 0.027
24. OS25HAL BONE  0.987 ± 0.022
25. SNU475 LIVER  0.991 ± 0.048
26. KPD BONE  0.995 ± 0.068
27. HMT3552 BREAST  1.015 ± 0.009
28. HU09 BONE  1.01 ± 0.13
29. MDAMB157 BREAST  1.02 ± 0.092
30. SG43 HEADNECK  1.02 ± 0.032
31. VP229 BREAST  1.03 ± 0.18
32. OSHN BONE  1.05 ± 0.019
33. NCIH441 LUNG  1.05 ± 0.024
34. 22RV1 PROSTATE  1.05 ± 0.097
35. SG27 HEADNECK  1.05 ± 0.092
36. SG31 HEADNECK  1.07 ± 0.074
37. HCC1806 BREAST  1.08 ± 0.15
38. SAOS2 BONE  1.1 ± 0.097
39. SUM44 BREAST  1.15 ± 0.24
40. HCC38 BREAST  1.27 ± 0.12
41. RDES SOFT TISSUE  1.58 ± 0.18

Same assay, conditions: 5 nM; exposure time: 5 days

In order of rising surviving fraction:
1. HOS BONE  0.075 ± 0.0078
2. BT20 BREAST  0.0757 ± 0.0075
3. MDAMB231 BREAST  0.112 ± 0.002
4. CAL120 BREAST  0.148 ± 0.021
5. CAL51 BREAST  0.231 ± 0.029
6. MFM223 BREAST  0.259 ± 0.2
7. OSHN BONE  0.265 ± 0.013
8. OS25HAL BONE  0.295 ± 0.029
9. HCC1806 BREAST  0.308 ± 0.016
10. MDAMB468 BREAST  0.325 ± 0.039
11. HCC38 BREAST  0.346 ± 0.013
12. SAOS2 BONE  0.39 ± 0.035
13. 143B BONE  0.431
14. HT1080 SOFT TISSUE  0.433 ± 0.0064
15. LM7 BONE  0.433 ± 0.018
16. SG32 HEADNECK  0.438 ± 0.017
17. HCC78 LUNG  0.457 ± 0.059
18. KPD BONE  0.519 ± 0.033
19. NCIH441 LUNG  0.547 ± 0.064
20. ZR751 BREAST  0.559 ± 0.083
21. MCF7 BREAST  0.679 ± 0.063
22. 22RV1 PROSTATE  0.703 ± 0.16
23. ASKA SYNOVIAL  0.719 ± 0.039
24. CHLA90 AUTONOMIC GANGLIA  0.734 ± 0.057
25. MDAMB436 BREAST  0.744 ± 0.13
26. SG43 HEADNECK  0.744 ± 0.088
27. MDAMB134 BREAST  0.759 ± 0.037
28. SYO1 SYNOVIAL  0.761 ± 0.03
29. MDAMB157 BREAST  0.77 ± 0.037
30. SG27 HEADNECK  0.813 ± 0.13
31. SG31 HEADNECK  0.883 ± 0.062
32. VP229 BREAST  0.903 ± 0.17
33. CADOES1 SOFT TISSUE  0.92 ± 0.096
34. HU09 BONE  0.925 ± 0.053
35. SNU475 LIVER  0.97 ± 0.044
36. SIHA CERVIX  0.977 ± 0.049
37. HCC1954 BREAST  0.987 ± 0.051
38. HMT3552 BREAST  1.06 ± 0.015
39. 93VU HEADNECK  1.06 ± 0.061
40. SUM44 BREAST  1.1 ± 0.2
41. RDES SOFT TISSUE  1.65 ± 0.19

Same assay, conditions: 10 nM; exposure time: 5 days

In order of falling surviving fraction:
1. HMT3552 BREAST  1.05 ± 0.056
2. 93VU HEADNECK  1.045 ± 0.0081
3. SUM44 BREAST  1 ± 0.27
4. SNU475 LIVER  0.944 ± 0.03
5. HU09 BONE  0.917 ± 0.11
6. CADOES1 SOFT TISSUE  0.911 ± 0.12
7. SG31 HEADNECK  0.893 ± 0.11
8. VP229 BREAST  0.874 ± 0.081
9. SG43 HEADNECK  0.81 ± 0.15
10. MDAMB157 BREAST  0.799 ± 0.039
11. SIHA CERVIX  0.735 ± 0.011
12. 22RV1 PROSTATE  0.679 ± 0.13
13. RDES SOFT TISSUE  0.622 ± 0.052
14. SG27 HEADNECK  0.575 ± 0.066
15. MDAMB134 BREAST  0.5665 ± 0.005
16. MDAMB436 BREAST  0.556 ± 0.099
17. SYO1 SYNOVIAL  0.514 ± 0.012
18. HCC1954 BREAST  0.467 ± 0.079
19. CHLA90 AUTONOMIC GANGLIA  0.44 ± 0.057
20. ZR751 BREAST  0.411 ± 0.07
21. ASKA SYNOVIAL  0.375 ± 0.017
22. MCF7 BREAST  0.368 ± 0.033
23. NCIH441 LUNG  0.284 ± 0.023
24. HCC1806 BREAST  0.284 ± 0.01
25. HCC78 LUNG  0.269 ± 0.062
26. KPD BONE  0.266 ± 0.046
27. 143B BONE  0.246 ± 0.042
28. HCC38 BREAST  0.243 ± 0.015
29. SG32 HEADNECK  0.238 ± 0.036
30. HT1080 SOFT TISSUE  0.237 ± 0.017
31. SAOS2 BONE  0.237 ± 0.0095
32. MFM223 BREAST  0.209 ± 0.15
33. LM7 BONE  0.201 ± 0.019
34. OS25HAL BONE  0.158 ± 0.03
35. CAL51 BREAST  0.105 ± 0.015
36. OSHN BONE  0.097 ± 0.008
37. MDAMB468 BREAST  0.0717 ± 0.0067
38. CAL120 BREAST  0.0712 ± 0.0018
39. MDAMB231 BREAST  0.0683 ± 0.0035
40. BT20 BREAST  0.0613 ± 0.006
41. HOS BONE  0.0527 ± 0.0038
